± gives the expanded uncertainty stated by the source.
Details: 369.8 K; Liquid; Ebulliometric method (Recirculating still)

SMILES: CCCO [propan-1-ol]
- vapor or sublimation pressure: 100 ± 2 kPa

Reference: the NIST ThermoML archive (doi:10.1016/j.jct.2017.06.005)
